Test system: KRAS PDC tumor spheroids (HUVEC+MSC), viability
Experiment: Anticancer human tumor 254851-301-R-J1-PDC patient-derived colon carcinoma cell line growth inhibition [KRAS2]
Settings: for IC50: curve of first compound; for viability, T/C: stronger effect = lower value
Outline: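 KRAS-mutant tumor cells were grown as spheroids with HUVEC endothelial cells and human MSCs as stroma. Targeted agents were tested alone and with KRAS pathway inhibitors. Doses started at or near clinical Cmax, or 10 microM, descending half-log.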

[1] = second compound 0.1 µM, first compound 0.0316 µM
[2] = second compound 0.1 µM, first compound 0.1 µM
[3] = second compound 0.1 µM, first compound 0.316 µM
[4] = second compound 0.1 µM, first compound 1 µM
[5] = second compound 0.1 µM, first compound 3.16 µM
[6] = second compound 0.1 µM, first compound 10 µM
[7] = second compound 0.316 µM, first compound 0.0316 µM
[8] = second compound 0.316 µM, first compound 0.1 µM
[9] = second compound 0.316 µM, first compound 0.316 µM
[10] = second compound 0.316 µM, first compound 1 µM
[11] = second compound 0.316 µM, first compound 3.16 µM
[12] = second compound 0.316 µM, first compound 10 µM
[13] = second compound 1 µM, first compound 0.0316 µM
[14] = second compound 1 µM, first compound 0.1 µM
[15] = second compound 1 µM, first compound 0.316 µM
[16] = second compound 1 µM, first compound 1 µM
[17] = second compound 1 µM, first compound 3.16 µM
[18] = second compound 1 µM, first compound 10 µM
[19] = second compound 3.16 µM, first compound 0.0316 µM
[20] = second compound 3.16 µM, first compound 0.1 µM
[21] = second compound 3.16 µM, first compound 0.316 µM
[22] = second compound 3.16 µM, first compound 1 µM
[23] = second compound 3.16 µM, first compound 3.16 µM
[24] = second compound 3.16 µM, first compound 10 µM
[25] = second compound 0.0316 µM, first compound 0.0316 µM
[26] = second compound 0.0316 µM, first compound 0.1 µM
[27] = second compound 0.0316 µM, first compound 0.316 µM
[28] = second compound 0.0316 µM, first compound 1 µM
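Also: spheroids exposed to compounds for seven days before readout.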
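For viability, T/C in this document: 100% = DMSO vehicle control luminescence of the spheroids.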

| Structure (SMILES) | IC50 (second compound 0.1 µM) | IC50 (second compound 0.316 µM) | IC50 (second compound 1 µM) | IC50 (second compound 3.16 µM) | viability, T/C [1] | viability, T/C [2] | viability, T/C [3] | viability, T/C [4] | viability, T/C [7] | viability, T/C [8] | viability, T/C [9] | viability, T/C [10] | viability, T/C [13] | viability, T/C [14] | viability, T/C [15] | viability, T/C [16] | viability, T/C [19] | viability, T/C [20] | viability, T/C [21] | viability, T/C [22] | other results |
| --- | --- | --- | --- | --- | --- | --- | --- | --- | --- | --- | --- | --- | --- | --- | --- | --- | --- | --- | --- | --- | --- |
| CC(C)NCC(C(=O)N1CCN(c2ncnc3c2C(C)CC3O)CC1)c1ccc(Cl)cc1 (stereo unspecified) + COc1cc2nc(C)nc(NC(C)c3cc(N)cc(C(F)(F)F)c3)c2cc1OC1CCOC1 | > 10000 nM | > 10000 nM | 2020 nM | 3160 nM | 107% | 99.7% | 99.7% | 91.5% | 101% | 98.2% | 84.3% | 84.1% | 85.2% | 100% | 82.2% | 78.5% | 85.6% | 83.2% | 88.4% | 44.5% | IC50 (second compound 10 µM): 514 nM; viability, T/C [5]: 39.8%; viability, T/C [6]: 75.7%; viability, T/C [11]: 31.1%; viability, T/C [12]: 71.4%; viability, T/C [17]: 32.2%; viability, T/C [18]: 13.7%; viability, T/C [23]: 32.5%; viability, T/C [24]: 75.1%; viability, T/C (second compound 10 µM, first compound 0.0316 µM): 75.3%; viability, T/C (second compound 10 µM, first compound 0.1 µM): 82%; viability, T/C (second compound 10 µM, first compound 0.316 µM): 56.1%; viability, T/C (second compound 10 µM, first compound 1 µM): 41.2%; viability, T/C (second compound 10 µM, first compound 3.16 µM): 15.5%; viability, T/C (second compound 10 µM, first compound 10 µM): 29.4% |
| CCN1CCN(Cc2ccc(Nc3ncc(F)c(-c4cc(F)c5nc(C)n(C(C)C)c5c4)n3)nc2)CC1 + C=CC(=O)N1CCN(c2nc(OCC3CCCN3C)nc3c2CCN(c2cccc4cccc(C)c24)C3)CC1CC#N | 645 nM | 600 nM | 131 nM | 55.3 nM | 83.3% | 71.5% | 66.2% | 40.6% | 94.2% | 77% | 60.5% | 42% | 57.5% | 49.7% | 44.5% | 34.6% | 52.5% | 43.4% | 40.1% | 16% | IC50 (second compound 0.0316 µM): 605 nM; viability, T/C (second compound 0.0316 µM, first compound 0.00316 µM): 102%; viability, T/C (second compound 0.0316 µM, first compound 0.01 µM): 97.3%; viability, T/C [25]: 90.8%; viability, T/C [26]: 78.1%; viability, T/C [27]: 64.4%; viability, T/C [28]: 39.2%; viability, T/C (second compound 0.1 µM, first compound 0.00316 µM): 98.9%; viability, T/C (second compound 0.1 µM, first compound 0.01 µM): 95.5%; viability, T/C (second compound 0.316 µM, first compound 0.00316 µM): 98%; viability, T/C (second compound 0.316 µM, first compound 0.01 µM): 87.6%; viability, T/C (second compound 1 µM, first compound 0.00316 µM): 59.5%; viability, T/C (second compound 1 µM, first compound 0.01 µM): 63.2%; viability, T/C (second compound 3.16 µM, first compound 0.00316 µM): 65.6%; viability, T/C (second compound 3.16 µM, first compound 0.01 µM): 56.8% |
| CCN1CCN(Cc2ccc(Nc3ncc(F)c(-c4cc(F)c5nc(C)n(C(C)C)c5c4)n3)nc2)CC1 | – | – | – | – | – | – | – | – | – | – | – | – | – | – | – | – | – | – | – | – | viability, T/C (compound 0.00316 µM): 98.6% [middle of 5 runs]; viability, T/C (compound 0.01 µM): 101% [middle of 5 runs]; viability, T/C (compound 0.0316 µM): 90.3% [middle of 5 runs]; viability, T/C (compound 0.1 µM): 83.7% [middle of 5 runs]; viability, T/C (compound 0.316 µM): 69.6% [middle of 5 runs]; viability, T/C (compound 1 µM): 42% [middle of 5 runs] |
| COc1cc(Nc2ncc3c(n2)-c2ccc(Cl)cc2C(c2c(F)cccc2OC)=NC3)ccc1C(=O)O + C=CC(=O)N1CCN(c2nc(OCC3CCCN3C)nc3c2CCN(c2cccc4cccc(C)c24)C3)CC1CC#N | 87.2 nM | 89.1 nM | 78 nM | 34.6 nM | 82.4% | 40% | 31.1% | 27% | 79.4% | 40.6% | 32.7% | 24.5% | 73.5% | 37.5% | 32% | 25.9% | 53.9% | 22.1% | 19.8% | 17% | IC50 (second compound 0.0316 µM): 89.2 nM; viability, T/C [25]: 84.6%; viability, T/C [26]: 41.6%; viability, T/C [27]: 30.3%; viability, T/C [28]: 27.5%; viability, T/C (second compound 0.0316 µM, first compound 3.16 µM): 17.7%; viability, T/C (second compound 0.0316 µM, first compound 10 µM): 9.36%; viability, T/C [5]: 16.2%; viability, T/C [6]: 8.9%; viability, T/C [11]: 17%; viability, T/C [12]: 7.34%; viability, T/C [17]: 16.4%; viability, T/C [18]: 8.35%; viability, T/C [23]: 6.88%; viability, T/C [24]: 1.67% |

From PubChem BioAssay AID1963868 (Molecular Pharmacology Branch, DTP, NCI, 2024)
